Source: US20120251613A1, “METHOD FOR TREATING VITILIGO WITH A PROSTAGLANDIN ANALOGUE” (AGILA SPECIALITIES PVT. LTD., priority 2011, published 2012)

Legend:
Patients with vitiligo [1] = assay: Follow-up for 6 months after stopping bimatoprost treatment: positive response and relapse; format: in vivo, human; settings: for Response positive (at least 25% repigmentation), number of patients / Response positive, ratio to total number of patients: 6 months after stopping therapy; for Relapse/loss of pigment, number of patients / Relapse/loss of pigment, percentage of patients with positive response: 6 months following cessation of therapy
From the text: The hypothetical mechanism of repigmentation would be of increased melanogenesis in dermal melanocytes together with increased transfer of melanin granules to the basal melanocytes.

Patients with vitiligo [2] = assay: Clinical efficacy of topical bimatoprost solution for treatment of vitiligo: degree of repigmentation; format: in vivo, human; settings: for number of patients with Complete repigmentation (100%) / number of patients with Excellent repigmentation (75-99%) / number of patients with Marked repigmentation (50-74%) / number of patients with Moderate repigmentation (25-49%) / number of patients with Nil/mild repigmentation (less than 25%): 0.03% solution topically twice a day, 4 months
Description: 20 Patients with vitiligo were treated with topical bimatoprost solution for 4 months to elucidate its efficacy and tolerability in stable vitiligo. The solution contained bimatoprost in a concentration of 0.3 mg/mL (0.03%), benzalkonium chloride in a concentration of 0.05 mg/mL, and water. The solution has a pH of between 6.8 and 7.8, and contains sodium chloride, a dibasic sodium phosphate/citric acid buffer, and sodium hydroxide and/or hydrochloric acid to adjust the pH. The subjects had suffered from vitiligo for a period of between 8 and 80 months. The average period of depigmentation for the patients was 26.7 months. All the patients were examined by an independent observer. The percentage of repigmentation in form of color or size changes and folliculocentric/peripheral repigmentation were observed. […] Specifically, Nil/Mild repigmentation means that the skin has undergone less than 25% repigmentation, i.e., less than 25% of the skin surface has repigmented or, if repigmentation is observed, the skin has regained less than 25% of its natural color. Moderate repigmentation means that the skin has undergone 25-49% repigmentation, as measured by repigmented surface are and/or skin color. Marked repigmentation means that the skin has undergone 50-74% repigmentation, and excellent repigmentation means that the skin has undergone 75-99% repigmentation. Complete response means that repigmented skin lesions from vitiligo are indistinguishable from skin which has never been depigmented. The repigmentation effect of the composition starts rapidly within one to two months after starting the treatment. Topical treatment with bimatoprost is continued for a period of at least two months. If no response is observed to treatment with topical bimatoprost, treatment is stopped at the end of two months. If a mild or moderate response to treatment with topical bimatoprost is observed, therapy is continued for at least 4 months, while observing the patient for any further delayed improvement. In cases where complete or excellent response to topical bimatoprost is observed, treatment is stopped to determine whether relapse, i.e., whether loss of pigmentation is observed upon cessation of bimatoprost therapy. The frequency of application of the topical bimatoprost as an aqueous solution is twice a day.

[3] = vitiliginous lesions on the face or neck
[4] = vitiliginous lesions on the trunk or extremities

SMILES: CCNC(=O)CCCC=CCC1C(O)CC(O)C1C=CC(O)CCc1ccccc1 (stereo not shown) [bimatoprost, 7-[3,5-dihydroxy-2-(3-hydroxy-5-phenyl-pent-1-enyl)-cyclopentyl]-N-ethyl-hept-5-enamide]
- Response positive (at least 25% repigmentation), number of patients (Patients with vitiligo [1]; Extremities, 4 patients): 2
- Response positive, ratio to total number of patients (Patients with vitiligo [1]; Extremities, 4 patients): 50%
- Relapse/loss of pigment, number of patients (Patients with vitiligo [1]; Extremities): 1
- Relapse/loss of pigment, percentage of patients with positive response (Patients with vitiligo [1]; Extremities): 50%
- Response positive (at least 25% repigmentation), number of patients (Patients with vitiligo [1]; Face and neck, 10 patients): 10
- Response positive, ratio to total number of patients (Patients with vitiligo [1]; Face and neck, 10 patients): 100%
- Relapse/loss of pigment, number of patients (Patients with vitiligo [1]; Face and neck): 1
- Relapse/loss of pigment, percentage of patients with positive response (Patients with vitiligo [1]; Face and neck): 10%
- Response positive (at least 25% repigmentation), number of patients (Patients with vitiligo [1]; Focal, 6 patients): 6
- Response positive, ratio to total number of patients (Patients with vitiligo [1]; Focal, 6 patients): 100%
- Relapse/loss of pigment, number of patients (Patients with vitiligo [1]; Focal): 0
- Response positive (at least 25% repigmentation), number of patients (Patients with vitiligo [1]; Mucosal, 2 patients): 0
- Relapse/loss of pigment, number of patients (Patients with vitiligo [1]; Mucosal): 0
- Response positive (at least 25% repigmentation), number of patients (Patients with vitiligo [1]; Segmental, 4 patients): 4
- Response positive, ratio to total number of patients (Patients with vitiligo [1]; Segmental, 4 patients): 100%
- Relapse/loss of pigment, number of patients (Patients with vitiligo [1]; Segmental): 0
- Response positive (at least 25% repigmentation), number of patients (Patients with vitiligo [1]; Trunk, 6 patients): 4
- Response positive, ratio to total number of patients (Patients with vitiligo [1]; Trunk, 6 patients): 66%
- Relapse/loss of pigment, number of patients (Patients with vitiligo [1]; Trunk): 2
- Relapse/loss of pigment, percentage of patients with positive response (Patients with vitiligo [1]; Trunk): 50%
- Response positive (at least 25% repigmentation), number of patients (Patients with vitiligo [1]; Vulgaris, 8 patients): 4
- Response positive, ratio to total number of patients (Patients with vitiligo [1]; Vulgaris, 8 patients): 50%
- Relapse/loss of pigment, number of patients (Patients with vitiligo [1]; Vulgaris): 1
- Relapse/loss of pigment, percentage of patients with positive response (Patients with vitiligo [1]; Vulgaris): 25%
- patients exhibiting a positive response 6 months after stopping therapy (Patients with vitiligo [1]; focal or segmental vitiligo): 100%
- patients with positive response showing measurable depigmentation after 6 months (Patients with vitiligo [1]; focal or segmental vitiligo): none
- patients exhibiting a positive response 6 months after stopping therapy (Patients with vitiligo [1]; generalized vitiligo (vitiligo vulgaris), eight patients): 50%
- patients exhibiting a positive response 6 months after stopping therapy, number (Patients with vitiligo [1]; generalized vitiligo (vitiligo vulgaris), of eight patients): four
- patients with positive response showing measurable depigmentation after 6 months, number (Patients with vitiligo [1]; generalized vitiligo, of four responders): one
- patients exhibiting a positive response 6 months after stopping therapy (Patients with vitiligo [1]; [3]): 100%
- patients with positive response showing measurable depigmentation after 6 months (Patients with vitiligo [1]; [3]): none
- patients exhibiting a positive response 6 months after stopping therapy (Patients with vitiligo [1]; [4]): 60%
- patients with positive response showing measurable depigmentation after 6 months (Patients with vitiligo [1]; [4]): 60%
- complete clearance of vitiligo lesions (100% repigmentation), percentage of patients (Patients with vitiligo [2]; 20 patients): 30%
- marked to excellent repigmentation (50-99%), percentage of patients (Patients with vitiligo [2]; 20 patients): 55%
- patients in whom repigmentation was observed, percentage (Patients with vitiligo [2]; 20 patients, all types of vitiligo): 70%
- number of patients with Complete repigmentation (100%) (Patients with vitiligo [2]; Focal vitiligo): 1
- number of patients with Excellent repigmentation (75-99%) (Patients with vitiligo [2]; Focal vitiligo): 4
- number of patients with Marked repigmentation (50-74%) (Patients with vitiligo [2]; Focal vitiligo): 1
- number of patients with Moderate repigmentation (25-49%) (Patients with vitiligo [2]; Focal vitiligo): 0
- number of patients with Nil/mild repigmentation (less than 25%) (Patients with vitiligo [2]; Focal vitiligo): 0
- number of patients with Complete repigmentation (100%) (Patients with vitiligo [2]; Mucosal vitiligo): 0
- number of patients with Excellent repigmentation (75-99%) (Patients with vitiligo [2]; Mucosal vitiligo): 0
- number of patients with Marked repigmentation (50-74%) (Patients with vitiligo [2]; Mucosal vitiligo): 0
- number of patients with Moderate repigmentation (25-49%) (Patients with vitiligo [2]; Mucosal vitiligo): 0
- number of patients with Nil/mild repigmentation (less than 25%) (Patients with vitiligo [2]; Mucosal vitiligo): 2
